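Test compounds were applied to cells in 96-well plates for 48 hours at 5 doses. GI50 = concentration required for 50% inhibition of growth. TGI: concentration producing complete growth inhibition.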
Legend:
Experiment in all cases: growth of human tumour cells (NCI), 48 h
MOLT-4 leukemia = system: MOLT-4 leukemia
K-562 leukemia = system: K-562 leukemia
KM12 colon = system: KM12 colon
MDA-MB-231 breast = system: MDA-MB-231 breast
SK-MEL-2 melanoma = system: SK-MEL-2 melanoma
A549 NSCLC = system: A549 NSCLC
786-0 renal = system: 786-0 renal
NCI-H522 lung = system: NCI-H522 lung
SK-MEL-5 melanoma = system: SK-MEL-5 melanoma
SNB-75 CNS = system: SNB-75 CNS
SR leukemia = system: SR leukemia
SF-295 CNS = system: SF-295 CNS
OVCAR-5 ovarian = system: OVCAR-5 ovarian
CAKI-1 renal = system: CAKI-1 renal
OVCAR-4 ovarian = system: OVCAR-4 ovarian
HCC-2998 colon = system: HCC-2998 colon
MCF7 breast = system: MCF7 breast
NCI-H460 lung = system: NCI-H460 lung
HOP-62 NSCLC = system: HOP-62 NSCLC
HS 578T breast = system: HS 578T breast
SNB-19 CNS = system: SNB-19 CNS
SK-MEL-28 melanoma = system: SK-MEL-28 melanoma
COLO 205 colon = system: COLO 205 colon
OVCAR-8 ovarian = system: OVCAR-8 ovarian
T-47D breast = system: T-47D breast
SF-539 CNS = system: SF-539 CNS
A498 renal = system: A498 renal
LOX IMVI melanoma = system: LOX IMVI melanoma
SW-620 colon = system: SW-620 colon
HT29 colon = system: HT29 colon
HL-60(TB) leukemia = system: HL-60(TB) leukemia
NCI/ADR-RES ovarian = system: NCI/ADR-RES ovarian
EKVX NSCLC = system: EKVX NSCLC
NCI-H23 lung = system: NCI-H23 lung
M14 melanoma = system: M14 melanoma
U251 CNS = system: U251 CNS
UACC-257 melanoma = system: UACC-257 melanoma
SF-268 CNS = system: SF-268 CNS
NCI-H226 lung = system: NCI-H226 lung
MALME-3M melanoma = system: MALME-3M melanoma
MDA-MB-435 = system: MDA-MB-435
UO-31 renal = system: UO-31 renal
ACHN renal = system: ACHN renal
OVCAR-3 ovarian = system: OVCAR-3 ovarian
HCT-116 colon = system: HCT-116 colon
BT-549 breast = system: BT-549 breast
HCT-15 colon = system: HCT-15 colon
IGROV1 ovarian = system: IGROV1 ovarian
SN12C renal = system: SN12C renal
CCRF-CEM leukemia = system: CCRF-CEM leukemia
TK-10 renal = system: TK-10 renal
RPMI-8226 leukemia = system: RPMI-8226 leukemia
PC-3 prostate = system: PC-3 prostate
RXF 393 renal = system: RXF 393 renal
HOP-92 NSCLC = system: HOP-92 NSCLC
UACC-62 melanoma = system: UACC-62 melanoma
SK-OV-3 ovarian = system: SK-OV-3 ovarian
DU-145 prostate = system: DU-145 prostate

With `Oc1c(I)cc(I)c2cccnc12` the GI50 (MOLT-4 leukemia) was 7.53 µM, the TGI (MOLT-4 leukemia) was > 100 µM and the GI50 (K-562 leukemia) was 5.01 µM. For the same molecule, the TGI (K-562 leukemia) was > 100 µM, the GI50 (KM12 colon) was 4.69 µM and the TGI (KM12 colon) was > 100 µM. For the same molecule, the GI50 (MDA-MB-231 breast) was 6.99 µM, the TGI (MDA-MB-231 breast) was 46.7 µM and the GI50 (SK-MEL-2 melanoma) was 8.82 µM. For the same molecule, the TGI (SK-MEL-2 melanoma) was 52.4 µM, the GI50 (A549 NSCLC) was 5.67 µM and the TGI (A549 NSCLC) was > 100 µM. The GI50 (786-0 renal) was 7.14 µM, the TGI (786-0 renal) was 25.4 µM and the GI50 (NCI-H522 lung) was 2.96 µM. The TGI (NCI-H522 lung) was > 100 µM, the GI50 (SK-MEL-5 melanoma) was 2.4 µM and the TGI (SK-MEL-5 melanoma) was 16.5 µM. For the same molecule, the GI50 (SNB-75 CNS) was 15.3 µM, the TGI (SNB-75 CNS) was > 100 µM and the GI50 (SR leukemia) was 5.75 µM. For the same molecule, the TGI (SR leukemia) was > 100 µM, the GI50 (SF-295 CNS) was 3.1 µM and the TGI (SF-295 CNS) was 8.13 µM. It also gave a GI50 (OVCAR-5 ovarian) of 3.57 µM, a TGI (OVCAR-5 ovarian) of 24.6 µM and a GI50 (CAKI-1 renal) of 3.17 µM. The TGI (CAKI-1 renal) was 14.2 µM, the GI50 (OVCAR-4 ovarian) was 3.94 µM and the TGI (OVCAR-4 ovarian) was > 100 µM. For the same molecule, the GI50 (HCC-2998 colon) was 2.44 µM, the TGI (HCC-2998 colon) was 7.34 µM and the GI50 (MCF7 breast) was 3.89 µM. It also gave a TGI (MCF7 breast) of 19.9 µM, a GI50 (NCI-H460 lung) of 2.93 µM and a TGI (NCI-H460 lung) of 10.4 µM. For the same molecule, the GI50 (HOP-62 NSCLC) was 4.85 µM, the TGI (HOP-62 NSCLC) was 26.8 µM and the GI50 (HS 578T breast) was 7.24 µM. For the same molecule, the TGI (HS 578T breast) was > 100 µM, the GI50 (SNB-19 CNS) was 3.33 µM and the TGI (SNB-19 CNS) was 22.5 µM. The GI50 (SK-MEL-28 melanoma) was 13.2 µM, the TGI (SK-MEL-28 melanoma) was > 100 µM and the GI50 (COLO 205 colon) was 3.6 µM. For the same molecule, the TGI (COLO 205 colon) was 17 µM, the GI50 (OVCAR-8 ovarian) was 3.35 µM and the TGI (OVCAR-8 ovarian) was 47.1 µM. The GI50 (T-47D breast) was 2.88 µM, the TGI (T-47D breast) was 15.6 µM and the GI50 (SF-539 CNS) was 4.16 µM. It also gave a TGI (SF-539 CNS) of 23.5 µM, a GI50 (A498 renal) of 12.2 µM and a TGI (A498 renal) of 58 µM. It also gave a GI50 (LOX IMVI melanoma) of 5.13 µM, a TGI (LOX IMVI melanoma) of 89.2 µM and a GI50 (SW-620 colon) of 3.74 µM. For the same molecule, the TGI (SW-620 colon) was > 100 µM, the GI50 (HT29 colon) was 8.91 µM and the TGI (HT29 colon) was > 100 µM. The GI50 (HL-60(TB) leukemia) was 6.82 µM, the TGI (HL-60(TB) leukemia) was > 100 µM and the GI50 (NCI/ADR-RES ovarian) was 2.48 µM. The TGI (NCI/ADR-RES ovarian) was 8.84 µM, the GI50 (EKVX NSCLC) was 3.38 µM and the TGI (EKVX NSCLC) was 24.2 µM. It also gave a GI50 (NCI-H23 lung) of 2.19 µM, a TGI (NCI-H23 lung) of 9.52 µM and a GI50 (M14 melanoma) of 5.27 µM. The TGI (M14 melanoma) was 23.7 µM, the GI50 (U251 CNS) was 3.74 µM and the TGI (U251 CNS) was 25.3 µM. For the same molecule, the GI50 (UACC-257 melanoma) was 3.53 µM, the TGI (UACC-257 melanoma) was 35.5 µM and the GI50 (SF-268 CNS) was 5.09 µM. For the same molecule, the TGI (SF-268 CNS) was 48.3 µM, the GI50 (NCI-H226 lung) was 4.51 µM and the TGI (NCI-H226 lung) was 29.2 µM. The GI50 (MALME-3M melanoma) was 0.573 µM, the TGI (MALME-3M melanoma) was 27.6 µM and the GI50 (MDA-MB-435) was 4.41 µM. The TGI (MDA-MB-435) was > 100 µM, the GI50 (UO-31 renal) was 2.17 µM and the TGI (UO-31 renal) was 21.4 µM. For the same molecule, the GI50 (ACHN renal) was 4.19 µM, the TGI (ACHN renal) was 26.8 µM and the GI50 (OVCAR-3 ovarian) was 2.42 µM. It also gave a TGI (OVCAR-3 ovarian) of 6.5 µM, a GI50 (HCT-116 colon) of 3.09 µM and a TGI (HCT-116 colon) of 13.5 µM. For the same molecule, the GI50 (BT-549 breast) was 0.833 µM, the TGI (BT-549 breast) was 33.9 µM and the GI50 (HCT-15 colon) was 4.29 µM. The TGI (HCT-15 colon) was > 100 µM, the GI50 (IGROV1 ovarian) was 4.24 µM and the TGI (IGROV1 ovarian) was 30.8 µM. For the same molecule, the GI50 (SN12C renal) was 6.67 µM, the TGI (SN12C renal) was 45.5 µM and the GI50 (CCRF-CEM leukemia) was 6.95 µM. For the same molecule, the TGI (CCRF-CEM leukemia) was > 100 µM, the GI50 (TK-10 renal) was 1.68 µM and the TGI (TK-10 renal) was 20.2 µM. The GI50 (RPMI-8226 leukemia) was 6.96 µM, the TGI (RPMI-8226 leukemia) was > 100 µM and the GI50 (PC-3 prostate) was 4.68 µM. The TGI (PC-3 prostate) was > 100 µM, the GI50 (RXF 393 renal) was 11.4 µM and the TGI (RXF 393 renal) was 29.8 µM. The GI50 (HOP-92 NSCLC) was 8.48 µM, the TGI (HOP-92 NSCLC) was 83.3 µM and the GI50 (UACC-62 melanoma) was 3.09 µM. It also gave a TGI (UACC-62 melanoma) of 15.6 µM, a GI50 (SK-OV-3 ovarian) of 5.17 µM and a TGI (SK-OV-3 ovarian) of 29.2 µM. It also gave a GI50 (DU-145 prostate) of 8.25 µM and a TGI (DU-145 prostate) of 58 µM.
